Test results from patent US9339486B2, “Heterocyclic modulators of cannabinoid receptors” (THE CLEVELAND CLINIC FOUNDATION, priority 2008, dated 2016).
“Also recorded” adds a separate entry of the source.

Key:
CB2 = CB2 (Homo sapiens (Human), UniProt P34972); test: CB2 Binding Assay ([3H]WIN 55212-2, cell membrane homogenates)
Method: Cell membrane homogenates (15 μg protein) were incubated for 120 min at 37° C. with 0.8 nM [3H]WIN 55212-2 (the reference standard [Munro, 1993 #1321]) in the absence or presence of the test compound in a buffer containing 50 mM HEPES/Tris HCL (pH 7.4), 5 mM MgCl2, 2.5 mM EGTA, and 0.1% BSA. Nonspecific binding was determined in the presence of 10 μM WIN 55212-2. After being incubated, the samples were filtered rapidly under vacuum through glass fiber filters (GF/B; Packard) presoaked with 0.3% PEI and rinsed several times with ice-cold buffer containing 50 mM Tris HCl (pH 7.4) and 0.5% BSA using a 96-sample cell harvester (Unifilter; Packard). The filters were dried then counted for radioactivity in a scintillation counter (Topcount; Packard) using a scintillation cocktail (Microscint 0; Packard). The results were expressed as a percentage of the inhibition of the control radioligand-specific binding. The reference standard compounds were tested in each experiment at several concentrations to obtain a competition curve from which its IC50 was calculated.

[1] = system: spinal nerve ligation neuropathic pain model; test: Tactile allodynia in SNL neuropathic pain model (von Frey); assay type: in vivo, rat
Method: Adult, male Sprague Dawley (Harlan Sprague Dawley, Indianapolis, Ind.) rats weighing 120-150 gm were used in experimental procedures approved by the Animal Care and Use Committee of the M. D. Anderson Cancer Center, University of Texas. Animals were housed three per cage on a 12/12 hr light/dark cycle with water and food pellets available ad libitum.
All surgical procedures were performed under deep isoflurane anesthesia in 100% 02. The spinal nerve ligation (SNL) was performed as described previously. Kim, S. H., et al., An Experimental Model for Peripheral Neuropathy Produced by Segmental Spinal Nerve Ligation in the Rat, Pain, 1992, 50:355-63. Briefly, a midline incision above the lumbar spine exposed the left L6 transverse process. The process was then removed, the left L5 and L6 spinal nerves were isolated, and both nerves were tightly ligated with 6-0 silk. Prophylactic antibiotic (norfloxacin 5 mg/kg subcutaneously) and analgesic (buprenorphine, 0.2-0.5 mg/kg, or morphine, 2.5 mg/kg, given subcutaneously) were administered once daily for 3 days. All the experiments were conducted 10-14 days after spinal nerve ligation.
Rats were placed in a compartment with a wire mesh bottom and allowed to acclimate for a minimum of 30 min before testing. Mechanical sensitivity was assessed using a series of Von Frey filaments with logarithmic incremental stiffness (0.41, 0.70, 1.20, 2.00, 3.63, 5.50, 8.50, and 15.1 g) (Stoelting, Wood Dale, Ill.) as previously described, and 50% probability withdrawal thresholds were calculated with the up-down method. Chaplan, S. R., et al., Quantitative Assessment of Tactile Allodynia in the Rat Paw, J. Neurosci. Methods, 1994, 53:55-63; Dixon, W., The Up-and-Down Method for Small Samples, J. Am. Stat. Assoc., 1965, 60:967-78. In brief, beginning with the 2.0-g probe, filaments were applied to the plantar surface of a hind paw for 6-8 s, in an ascending or descending order after a negative or positive withdrawal response, respectively. Six consecutive responses from the first change in the response were used to calculate the withdrawal threshold (in grams). In cases where response thresholds fell outside the range of detection, 15.00 and 0.25 g were, respectively, assigned for continuous negative or positive responses to the limit of stimuli. The percent maximal possible effect (% MPE) was calculated as ([postdrug threshold−baseline threshold]/[cutoff threshold (15 g)−baseline threshold])×100.
Statistical analyses were carried out using BMDP 2007 (Statistical Solutions, Saugus, Mass., USA) and Graph Pad Prism (version 4.03; Graph Pad Software Inc., San Diego, Calif., USA). Data were analyzed using one-way ANOVA, repeated measures ANOVA, or t-test where appropriate. If ANOVA was significant, Tukey-Kramer post hoc analysis was used for multiple group comparison. Area under the curve (AUC) was calculated using the trapezoidal rule. The results are presented as mean±s.e. mean and were considered significant at P<0.05. Analyses of the dose-response curves and statistics were obtained using the pharmacologic software programs of Tallarida and Murray and included calculation of the ED50 values and their 95% confidence intervals (CI). Tallarida, R. J., et al., Manual of Pharmacologic Calculations With Computer Programs, Second ed. New York: Springer-Verlag, 1987.

CB1 = CB1 (Homo sapiens (Human), UniProt P21554); test: CB1/CB2 Functional Assay (GTPγ[35S]), CB1 membranes; assay type: biochemical
Method: A dose response curve was generated at eight concentrations in duplicate on CB1 and CB2 in light of reference agonists. The reference agonists for cannabinoid receptors was CP55,940. See FIGS. 1A, 1B, 2A, 2B, 3A and 3B.
Membranes (CB1, ES-110-MG or CB2, ES-111-MG) were mixed with GDP (volume:volume) and incubated for at least 15 min on ice. In parallel, GTPγ[^35S] were mixed with the beads (volume:volume) just before starting the reaction. The following reagents were successively added in the wells of an Optiplate: 50 μl of ligand, 20 μl of the membranes:GDP mix, 10 μl of assay buffer for agonist testing and 20 μl of the GTPγ[^35S]: beads mix. The plates were covered with a topseal, shaken on an orbital shaker for 2 min, and then incubated between 30 to 60 min. at room temperature. Then the plates were centrifuged for 10 min at 2000 rpm, incubated at room temperature between 1 to 4 hours and counted for 1 min with a PerkinElmer TopCount reader.

[2] = CB2, test concentration 1.0E−05 (MD)

Sequence of CB2 (P34972 whole entry): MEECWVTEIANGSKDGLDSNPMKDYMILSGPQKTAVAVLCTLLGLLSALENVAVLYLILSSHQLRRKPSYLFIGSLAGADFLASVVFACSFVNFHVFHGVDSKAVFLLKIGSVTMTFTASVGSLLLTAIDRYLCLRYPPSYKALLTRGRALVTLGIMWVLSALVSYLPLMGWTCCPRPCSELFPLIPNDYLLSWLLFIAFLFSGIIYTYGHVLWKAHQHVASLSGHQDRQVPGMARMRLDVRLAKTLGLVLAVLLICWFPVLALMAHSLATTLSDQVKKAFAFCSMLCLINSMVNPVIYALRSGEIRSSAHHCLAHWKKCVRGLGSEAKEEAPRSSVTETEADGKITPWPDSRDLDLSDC
Sequence of CB1 (P21554 whole entry): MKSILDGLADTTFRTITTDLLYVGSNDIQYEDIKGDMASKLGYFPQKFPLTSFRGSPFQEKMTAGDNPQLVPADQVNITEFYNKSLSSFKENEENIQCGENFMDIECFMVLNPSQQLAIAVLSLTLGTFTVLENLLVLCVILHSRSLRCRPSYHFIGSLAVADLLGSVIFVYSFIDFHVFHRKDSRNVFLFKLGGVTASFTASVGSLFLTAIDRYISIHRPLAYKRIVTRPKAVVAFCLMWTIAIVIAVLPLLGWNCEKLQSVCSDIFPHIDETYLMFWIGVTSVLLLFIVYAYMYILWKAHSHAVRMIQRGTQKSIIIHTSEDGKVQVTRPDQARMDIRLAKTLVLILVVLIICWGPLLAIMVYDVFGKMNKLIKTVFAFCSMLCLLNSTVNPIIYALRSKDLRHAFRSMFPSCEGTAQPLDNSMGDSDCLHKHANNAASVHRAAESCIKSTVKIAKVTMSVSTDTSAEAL

## CC1(Cc2ccccc2)COc2cc(C(=O)N3CCCCC3)ccc21 (stereo not shown) [Example 3, 3-benzyl-3-methyl-2,3-dihydrobenzofuran-6-carboxylic acid-piperidine amide]
CB2; [2]
  % Inhibition of Control Specific Binding: 91%
  % of Control Specific Binding Mean: 9.4%
CB2; CB2, test concentration 1.0E−05 (MD), first replicate
  % of Control Specific Binding 1st: 13%
CB2; CB2, test concentration 1.0E−05 (MD), second replicate
  % of Control Specific Binding 2nd: 5.8%
CB2; as repeated in Table 4
  % Inhibition of Control Specific Binding CB2: 91%
[1]; 10 mg/kg i.p.
  antiallodynic effect compared with 15 mg/kg AM1241 i.p.: significantly (P<0.001) greater
[1]; Rattus norvegicus, ip, 0.5 h, i.p., at 30 min, SNL model, read-out: ED50 anti-allodynic effect (tactile allodynia)
  ED50: 7.48 mg/kg
[1]; compound 10 mg/kg i.p., AM251 15 min prior
  effect of AM251 pretreatment (5 mg/kg i.p.) on antiallodynic effects of the compound: did not affect the antiallodynic effects; also recorded: had no effect
[1]; compound 10 mg/kg i.p., AM630 15 min prior
  effect of AM630 pretreatment (5 mg/kg i.p.) on antiallodynic effects of the compound: antagonized the effects; also recorded: reversed the antiallodynic effects; also recorded: significantly reversed
[1]; compound of Example 3 10 mg/kg i.p., naloxone 15 min prior
  effect of naloxone pretreatment (10 mg/kg i.p.) on antiallodynic activity: did not affect the antiallodynic effects; also recorded: had no effect
[1]; i.p. 5, 10, 15 mg/kg
  effect on tactile allodynia: attenuated tactile allodynia in a dose-related manner
CB1
  Compound Function: Agonist
CB1; reference agonist CP55,940
  % Activation Average: 22.85%
